The structures appear in SMILES notation. Structures can show the parent of a compound that is named as a salt. Where only a bound is given, the exact number is not on record here.

One data set addresses T1, h-5-HT6 receptor (Homo sapiens, UniProt P50406).
T1 construct: expressed in transfected cells
Kind of data set: 5-HT6 receptor binding assay (displacement of [3H]-LSD). Conditions: cloned human 5-HT6 receptor, HEK293 membranes, 1 nM [3H]-LSD. As for the experimental part: Displacement of radioligands binding to the following cloned human receptors
1. Preparation of Membranes by Ultrasonic Treatment and Differential Centrifugation
Cells from stable clonal cell lines expressing the corresponding receptor (5-HT6, α1-adrenergic, dopamine D2 or histamine H1 receptors) were washed with PBS (w/o Ca^++, Mg^++) and harvested in PBS with 0.02% EDTA. The cells were collected by centrifugation at 500 g for 10 min. at 4° C., washed with PBS and centrifuged (500 g, 10 min. 4° C.). The pellets were stored at −80° C. until use. For membrane preparation, the thawed cell pellet was resuspended in ice-cold sucrose buffer (0.25 M sucrose, 10 mM Hepes (pH 7.4), 1 mM Phenylmethylsulfonyl fluoride (PMSF) in DMSO, 5 μg/ml Pepstatin-A, 3 mM EDTA, 0.025% Bacitracin) and homogenized with a Branson Sonifier W-250 (Settings: Timer 4; Output Control 3; Duty Cycle constant; 2 to 3 cycles). Cell disruption was checked with the aid of a microscope. Remaining unbroken cells were pelleted at 1.000 g for 10 min. at 4° C. The sucrose buffer supernatant was then centrifuged at 60.000 g for 1 h at 4° C. (Beckman Ultrazentrifuge XL 80). The pellet was resuspended in 30 ml ice-cold Tris buffer (20 mM TRIS (pH 7.4), 5 μg/ml Pepstatin A, 0.1 mM PMSF, 3 mM EDTA) by pipetting through a 10 ml serological pipet and centrifuged for 1 h at 4° C. at 60.000 g. A final resuspension was performed in a small volume of ice-cold Tris buffer (see above) by pressing through a serological pipet followed by ultrasonic treatment with a Branson Sonifier W-250 (Settings: Timer 1; Output Control 3; Duty Cycle constant; 1 cycle). Protein concentration was determined (BCA-Kit; Pierce) and aliquots stored at −80° C. or in liquid nitrogen for long-term storage.
2. Receptor Binding Experiments
All receptor binding experiments were carried out in the corresponding assay buffer in a total volume of 200 μl in the presence of various concentrations of test compound (10^−5 M to 10^−9 M, tenfold serial dilution, duplicate determinations). The assays were terminated by filtration on polyethylenimine (PEI 0.1% or 0.3%) presoaked Packard Unifilter Plates (GF/C or GF/B) with a Tomtec MachIII U 96 well-plate harvester. After the plates had been dried for 2 h at 55° C. in a drying chamber scintillation cocktail (BetaPlate Scint; PerkinElmer) was added. Radioactivity was measured in a Microbeta Trilux two hours after the addition of the scintillation mixture. Data derived from liquid scintillation counting were analysed by iterative non-linear regression analysis with the use of the Statistical Analysis System (SAS): a program similar to “LIGAND” as described by Munson and Rodbard (Analytical Biochemistry 107, 220-239 (1980).
a) 5-HT6 Receptor Binding Assay
HEK293 cells stably expressing the h-5-HT6 receptor (NCBI Reference Sequence XM 001435) were cultured in RPMI1640 medium supplemented with 25 mM HEPES, 10% fetal calf serum and 1-2 mM glutamine. The membrane preparation was performed as described in section 1. […] Non-specific binding was defined with 1 μM methiothepin. The binding reaction was carried out for 3.5 h at room temperature. During the incubation, the plates were shaken on a plate shaker at 100 rpm and terminated by filtration on Packard Unifilter GF/C (0.1% PEI) plates, followed by 2 wash cycles with ice-cold 50 mM Tris-HCl, 5 mM CaCl2.
Data derived from liquid scintillation counting were analyzed by iterative non-linear regression analysis with the use of the Statistical Analysis System (SAS): a program similar to “LIGAND” as described by Munson and Rodbard (Anal. Biochem. 1980, 107, 220-239). Fitting was performed according to formulae described by Feldman (Anal. Biochem. 1972, 48, 317-338). IC50, nH and Ki values were expressed as geometrical mean.

The nature of data set [1]: Metabolic stability in human liver microsomes (microsomal clearance). Format: in vitro ADME. Conditions: pH 7.4; human liver microsomes 0.25 mg protein/mL, 0.5 μM compound, NADPH, 37° C.; read-out: mClint. As for the experimental part: Samples of the tested compounds (0.5 μM) were preincubated together with human liver microsomes (0.25 mg of microsomal protein/mL) in 0.05 M potassium phosphate buffer of pH 7.4 in microtiter plates at 37° C. for 5 minutes. The reaction was started by adding NADPH (1.0 mM). After 0, 5, 10, 15, 20 and 30 minutes, an aliquot was removed, the reaction was cooled and stopped by adding twice the amount of quench solution consisting of acetonitrile/methanol 1:1, and containing 0.2 μM carbutamide as internal standard. The samples were frozen until analyzed. The remaining concentration of undegraded test substance was determined by liquid chromatography-tandem mass spectrometry (LC-MS/MS). The half-life (t1/2) was determined from the gradient of the ratio of the signal of (test substance/internal standard)/unit time plot, allowing the calculation of the half-life of the test substance, assuming first order kinetics, from the decrease in the concentration of the compound with time. The microsomal clearance (mClint) was calculated as follows: mClint=((ln(2)/t 1/2)/Microsomal Protein Concentration (mg/ml))*1000, leading to the unit of μL/min/mg.

T1 sequence (P50406 whole entry): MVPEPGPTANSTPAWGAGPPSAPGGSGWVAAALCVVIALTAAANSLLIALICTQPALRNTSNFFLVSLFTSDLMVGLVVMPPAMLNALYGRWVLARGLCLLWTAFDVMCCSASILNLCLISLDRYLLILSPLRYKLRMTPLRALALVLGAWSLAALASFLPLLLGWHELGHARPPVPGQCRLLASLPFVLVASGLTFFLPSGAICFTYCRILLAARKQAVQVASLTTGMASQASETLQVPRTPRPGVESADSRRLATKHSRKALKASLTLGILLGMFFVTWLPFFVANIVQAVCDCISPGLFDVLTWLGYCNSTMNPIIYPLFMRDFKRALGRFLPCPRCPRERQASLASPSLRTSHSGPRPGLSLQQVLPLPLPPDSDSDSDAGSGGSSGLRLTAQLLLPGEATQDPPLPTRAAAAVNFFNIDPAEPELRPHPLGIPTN

In the case of `CC1(O)CCN(c2cccc3cc(S(=O)(=O)c4cccc(C(F)(F)F)c4)cnc23)CC1` [Example 7, 4-Methyl-1-[3-[3-(trifluoromethyl)phenyl]sulfonyl-8-quinolyl]piperidin-4-ol Hydrochloride], at h-5-HT6 receptor, the inhibitory constant (Ki) is less than 10 nM. Besides, the microsomal CLint at 0.5 μM in data set [1] lay within 60 to 120 µL/min/mg.
For `O=S(=O)(c1cccc(C(F)(F)F)c1)c1cnc2c(N3CC(O)C3)cccc2c1` [Example 8, 1-[3-[3-(Trifluoromethyl)phenyl]sulfonyl-8-quinolyl]azetidin-3-ol], in that order: less than 10 nM and 30 to 60 µL/min/mg.
For `O=S(=O)(c1cccc(F)c1)c1cnc2c(N3CCC(O)CC3)cccc2c1` [Example 9, 1-[3-(3-Fluorophenyl)sulfonyl-8-quinolyl]piperidin-4-ol], in that order: less than 10 nM and less than 30 µL/min/mg.
In the case of `O=S(=O)(c1cccc(F)c1)c1cnc2c(N3CC(O)C3)cccc2c1` [Example 10, 1-[3-(3-Fluorophenyl)sulfonyl-8-quinolyl]azetidin-3-ol], the inhibitory constant (Ki) at h-5-HT6 receptor is less than 10 nM. Besides, the microsomal CLint at 0.5 μM in data set [1] lay within 30 to 60 µL/min/mg.
For `O=C(O)[C@@H]1CCN(c2cccc3cc(S(=O)(=O)c4cccc(C(F)(F)F)c4)cnc23)C1` [Example 12, (3R)-1-[3-[3-(Trifluoromethyl)phenyl]sulfonyl-8-quinolyl]pyrrolidine-3-carboxylic Acid], in that order: 10 to 100 nM and less than 30 µL/min/mg.
On h-5-HT6 receptor, `COc1cccc(S(=O)(=O)c2cnc3c(N4CCC(O)CC4)cccc3c2)c1` [Example 13, 1-[3-(3-Methoxyphenyl)sulfonyl-8-quinolyl]piperidin-4-ol] yielded an inhibitory constant (Ki) of less than 10 nM. Further, the microsomal CLint at 0.5 μM in data set [1] fell in the range of 60 to 120 µL/min/mg.
For `COc1cccc(S(=O)(=O)c2cnc3c(N4CCC(C(=O)O)CC4)cccc3c2)c1` [Example 15, 1-[3-(3-Methoxyphenyl)sulfonyl-8-quinolyl]piperidine-4-carboxylic Acid], in that order: 100 to 500 nM and less than 30 µL/min/mg.
For `O=S(=O)(c1cccc(N2CCC(O)CC2)c1)c1cnc2c(N3CCC(O)CC3)cccc2c1` [Example 16, 1-[3-[[8-(4-Hydroxy-1-piperidyl)-3-quinolyl]sulfonyl]phenyl]piperidin-4-ol], in that order: 10 to 100 nM and 30 to 60 µL/min/mg.
`O=S(=O)(c1ccccc1)c1cnc2c(N3CCC(O)CC3)cccc2c1` [Example 18, 1-[3-(Benzenesulfonyl)-8-quinolyl]piperidin-4-ol]: on h-5-HT6 receptor, the Ki is less than 10 nM. The microsomal CLint at 0.5 μM in data set [1] is less than 30 µL/min/mg.
For `O=S(=O)(c1cccc(C(F)(F)F)c1)c1cnc2c(N3CC[C@@H](O)C3)cccc2c1` [Example 19, (3R)-1-[3-[3-(Trifluoromethyl)phenyl]sulfonyl-8-quinolyl]pyrrolidin-3-ol], in that order: 10 to 100 nM and 30 to 60 µL/min/mg.
Turning to `O=S(=O)(c1cccc(F)c1)c1cnc2c(N3CCC[C@@H](O)C3)cccc2c1` [Example 20, (3R)-1-[3-(3-Fluorophenyl)sulfonyl-8-quinolyl]piperidin-3-ol], the Ki at h-5-HT6 receptor was less than 10 nM. In data set [1], the microsomal CLint at 0.5 μM was in the range of 30 to 60 µL/min/mg.
For `COc1ccccc1S(=O)(=O)c1cnc2c(N3CCC(O)CC3)cccc2c1` [Example 21, 1-[3-(2-Methoxyphenyl)sulfonyl-8-quinolyl]piperidin-4-ol], in that order: 10 to 100 nM and 60 to 120 µL/min/mg.
For `O=S(=O)(c1ccccc1)c1cnc2c(N3CCC[C@H](O)C3)cccc2c1` [Example 22, (3S)-1-[3-(Benzenesulfonyl)-8-quinolyl]piperidin-3-ol], in that order: 10 to 100 nM and 30 to 60 µL/min/mg.
For `O=S(=O)(c1ccccc1)c1cnc2c(N3CCC[C@@H](O)C3)cccc2c1` [Example 23, (3R)-1-[3-(Benzenesulfonyl)-8-quinolyl]piperidin-3-ol], in that order: less than 10 nM and 30 to 60 µL/min/mg.
In the case of `O=S(=O)(c1cccc(N2CCC(O)CC2)c1)c1cnc2c(F)cccc2c1` [Example 24, 1-[3-[(8-Fluoro-3-quinolyl)sulfonyl]phenyl]piperidin-4-ol], the inhibition constant Ki on h-5-HT6 receptor was 10 to 100 nM. Moreover, the microsomal CLint at 0.5 μM in data set [1] was in the range of 60 to 120 µL/min/mg.
For `O=S(=O)(c1cccc(F)c1)c1cnc2c(N3CCC[C@H](O)C3)cccc2c1` [Example 27, (3S)-1-[3-(3-Fluorophenyl)sulfonyl-8-quinolyl]piperidin-3-ol], in that order: less than 10 nM and 30 to 60 µL/min/mg.
For `Cc1ccc(O)c(S(=O)(=O)c2cnc3c(N4CCC(O)CC4)cccc3c2)c1` [Example 28, 1-[3-(2-Hydroxy-5-methyl-phenyl)sulfonyl-8-quinolyl]piperidin-4-ol], in that order: 10 to 100 nM and 30 to 60 µL/min/mg.
For `O=S(=O)(c1cccc(OC(F)F)c1)c1cnc2c(N3CCC(O)CC3)cccc2c1` [Example 29, 1-[3-[3-(Difluoromethoxy)phenyl]sulfonyl-8-quinolyl]piperidin-4-ol], in that order: less than 10 nM and less than 30 µL/min/mg.
The compound `O=S(=O)(c1ccccc1)c1cnc2c(N3CC[C@H](O)C3)cccc2c1` [Example 30, (3S)-1-[3-(Benzenesulfonyl)-8-quinolyl]pyrrolidin-3-ol] yielded a Ki at h-5-HT6 receptor of less than 10 nM. For the same compound, the microsomal CLint at 0.5 μM in data set [1] was in the range of 60 to 120 µL/min/mg.
Regarding `O=C(O)C1CCN(c2cccc3cc(S(=O)(=O)c4cccc(OC(F)F)c4)cnc23)CC1` [Example 31, 1-[3-[3-(Difluoromethoxy)phenyl]sulfonyl-8-quinolyl]piperidine-4-carboxylic Acid], the inhibitory constant (Ki) at h-5-HT6 receptor was 10 to 100 nM. In addition, the microsomal CLint at 0.5 μM in data set [1] is less than 30 µL/min/mg.
With `O=S(=O)(c1ccccc1)c1cnc2c(N3C[C@H](O)[C@@H](O)C3)cccc2c1` [Example 32, (3S,4S)-1-[3-(Benzenesulfonyl)-8-quinolyl]pyrrolidine-3,4-diol], the Ki at h-5-HT6 receptor is less than 10 nM. Also, the microsomal CLint at 0.5 μM in data set [1] lay in the range of 30 to 60 µL/min/mg.
On h-5-HT6 receptor, `O=S(=O)(c1cccc(F)c1)c1cnc2c(N3CC[C@@H](O)C3)cccc2c1` [Example 33, (3R)-1-[3-(3-Fluorophenyl)sulfonyl-8-quinolyl]pyrrolidin-3-ol] gave a Ki of less than 10 nM. Moreover, the microsomal CLint at 0.5 μM in data set [1] fell in the range of 30 to 60 µL/min/mg.
For the compound `O=S(=O)(c1ccccc1)c1cnc2c(N3C[C@H](O)C[C@H](O)C3)cccc2c1` [Example 36, (3R,5S)-1-[3-(Benzenesulfonyl)-8-quinolyl]piperidine-3,5-diol], the Ki on h-5-HT6 receptor is less than 10 nM. In data set [1], the microsomal CLint at 0.5 μM was less than 30 µL/min/mg.
For `O=C(O)C1CCN(c2cccc3cc(S(=O)(=O)c4ccccc4)cnc23)CC1` [Example 37, 1-[3-(Benzenesulfonyl)-8-quinolyl]piperidine-4-carboxylic Acid], in that order: 10 to 100 nM and less than 30 µL/min/mg.

(Values after patent publication US10160744B2, “Quinoline compounds suitable for treating disorders that respond to the modulation of the serotonin 5-HT6 receptor” (Abbvie Deutschland GmbH & Co. KG, priority 2016, dated 2018).)
